Each compound was assayed against T1, human PAH with the R408W mutation (Homo sapiens, UniProt P00439, R408W) (assay: Cell Based Phenylalanine Flux Assay). Conditions: A375 cells expressing R408W PAH; 24 hrs with compound, then 20 µM sepiapterin and 800 µM 13C9,15N-Phenylalanine for 4 hours; 13C-Tyrosine by LC-MS; average where tested multiple times; read-out: AC50.
T1 construct: expressed in transfected cells
T1 sequence (P00439 1-452 R408W): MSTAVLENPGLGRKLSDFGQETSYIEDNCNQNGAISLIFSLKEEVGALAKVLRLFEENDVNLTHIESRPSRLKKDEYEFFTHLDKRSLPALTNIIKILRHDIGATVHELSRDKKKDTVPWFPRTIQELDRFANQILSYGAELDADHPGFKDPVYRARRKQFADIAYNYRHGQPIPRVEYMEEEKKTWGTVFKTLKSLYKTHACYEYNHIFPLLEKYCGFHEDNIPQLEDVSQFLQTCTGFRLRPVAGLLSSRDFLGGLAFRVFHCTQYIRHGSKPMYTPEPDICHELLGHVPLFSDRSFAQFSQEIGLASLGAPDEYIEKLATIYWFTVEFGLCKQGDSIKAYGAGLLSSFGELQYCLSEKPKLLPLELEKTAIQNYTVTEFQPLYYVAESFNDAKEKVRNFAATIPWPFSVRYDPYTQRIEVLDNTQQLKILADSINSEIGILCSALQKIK
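Also: after compound treatment, cells received sepiapterin plus isotope-labelled Phenylalanine for 4 hours, then labelled Tyrosine in the medium was quantified, 10-point 2-fold dilution series run in duplicate.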

Row | SMILES | AC50 [µM]
1 | COc1cccn2nc(C3c4nc[nH]c4CCN3C(=O)c3nnc(-c4ccn(C)n4)o3)cc12 (single isomer, unassigned) | > 5
2 | Fc1cccn2nc([C@H]3c4nc[nH]c4CCN3c3nnc(-c4cccnc4)o3)cc12 (single isomer, unassigned) | > 5
3 | Cc1cccn2nc([C@H]3c4nc[nH]c4CCN3C(=O)c3nnc(N4CCOCC4)o3)cc12 (single isomer, unassigned) | > 5
4 | N#Cc1ncoc1C(=O)N1CCc2[nH]cnc2[C@@H]1c1nn2ccccc2c1Br (single isomer, unassigned) | 1 to 5
5 | Fc1ccc(-c2nnc(N3CCc4[nH]cnc4[C@@H]3c3cc4ccccn4n3)o2)nc1 (single isomer, unassigned) | > 5
6 | O=C(c1nnc(-c2cc[nH]n2)o1)N1CCc2[nH]cnc2[C@H]1c1cc2ccccn2n1 (single isomer, unassigned) | 1 to 5
7 | Cn1cc(-c2nnc(C(=O)N3CCc4[nH]cnc4C3c3nn4ccccc4c3Br)o2)cn1 (single isomer, unassigned) | 1 to 5
8 | COc1cccn2nc([C@@H]3c4nc[nH]c4CCN3C(=O)c3nnc(-c4ccn(C)n4)o3)cc12 (single isomer, unassigned) | 1 to 5
9 | Cc1nc(-c2ccccn2)oc1C(=O)N1CCc2[nH]cnc2[C@H]1c1cc2ccccn2n1 (single isomer, unassigned) | 1 to 5
10 | Cc1nc(C(C)(C)O)oc1C(=O)N1CCc2[nH]cnc2[C@H]1c1cc2ccccn2n1 (single isomer, unassigned) | 1 to 5
11 | Cc1ncccc1-c1nnc(N2CCc3[nH]cnc3[C@H]2c2cc3c(C4CC4)cccn3n2)o1 (single isomer, unassigned) | 1 to 5
12 | N#Cc1ncoc1C(=O)N1CCc2[nH]cnc2[C@H]1c1nn2ccccc2c1Br (single isomer, unassigned) | 1 to 5
13 | CN(C)Cc1ccc2c(C(=O)N3CCc4[nH]cnc4C3c3cc4ccccn4n3)cnn2c1 (single isomer, unassigned) | 1 to 5
14 | O=C(c1nnc(CCN2CC(F)C2)o1)N1CCc2[nH]cnc2C1c1cc2ccccn2n1 (stereo not shown) [2-[2-(3-fluoroazetidin-1-yl)ethyl]-5-(4-{pyrazolo[1,5-a]pyridin-2-yl}-1H,4H,5H,6H,7H-imidazo[4,5-c]pyridine-5-carbonyl)-1,3,4-oxadiazole] | > 5
15 | O=C(C1CC1(F)F)N1CCc2[nH]cnc2C1c1cc2ccccn2n1 [4S enantiomer of 5-[(1S)-2,2-difluorocyclopropanecarbonyll-4] | 1 to 5
16 | CC(O)c1nnc(C(=O)N2CCc3[nH]cnc3C2c2cc3ccccn3n2)o1 [4S enantiomer of (1R)-1-{5-[4-{pyrazolo[1,5-a]pyridin-2-yl}-] | 1 to 5
17 | Cc1nc(C(C)O)oc1C(=O)N1CCc2[nH]cnc2C1c1cc2ccccn2n1 [4S enantiomer of (1S)-1-14-methyl-5-[4-{pyrazolo[1,5-a]pyrid] | 1 to 5

Same assay, conditions: A375 cells expressing human PAH R408W; 24 hrs compound incubation; 13C-Tyrosine by LC-MS; average where tested multiple times; read-out: AC50

Row | AC50 [µM] | SMILES
18 | > 5 | Fc1cccc(F)c1-c1nnc(N2CCc3[nH]cnc3[C@@H]2c2cc3ccccn3n2)o1 (single isomer, unassigned) [Example 1842]
19 | 1 to 5 | CC(O)c1nc(Cl)c(C(=O)N2CCc3[nH]cnc3[C@H]2c2cc3ccccn3n2)o1 (single isomer, unassigned) [Example 2376]
20 | 1 to 5 | CC(O)c1nc(Cl)c(C(=O)N2CCc3[nH]cnc3[C@H]2c2cc3ccccn3n2)o1 (single isomer, unassigned) [Example 2377]

Same assay, conditions: A375 cells expressing human R408W PAH; 24 hrs compound incubation; 13C-Tyrosine by LC-MS; average where tested multiple times; read-out: AC50

Row | AC50 [µM] | SMILES
21 | < 0.5 | Cn1ccc(-c2nnc(C(=O)N3CCc4[nH]cnc4[C@H]3c3cc4c(C(F)(F)F)cccn4n3)o2)n1 (single isomer, unassigned) [Example 836]
22 | < 0.5 | CC(O)c1nc(Br)c(C(=O)N2CCc3[nH]cnc3[C@H]2c2cc3ccccn3n2)o1 (single isomer, unassigned) [Example 996]
23 | < 0.5 | CC(O)c1nc(Br)c(C(=O)N2CCc3[nH]cnc3[C@H]2c2cc3ccccn3n2)o1 (single isomer, unassigned) [Example 997]
24 | 0.5 to 1 | O=C(c1cnn2ccccc12)N1CCc2[nH]cnc2[C@H]1c1cc2ccccn2n1 [Example 600, (S)-(4-(pyrazolo[1,5-a]pyridin-2-yl)-6,7-dihydro-1H-imidazo[4,5-c]pyridin-5(4H)-yl)(pyrazolo[1,5-a]pyridin-3-yl)methanone]
25 | > 5 | O=C(c1cnn2ccccc12)N1CCc2[nH]cnc2[C@@H]1c1cc2ccccn2n1 [Example 601, (R)-(4-(pyrazolo[1,5-a]pyridin-2-yl)-6,7-dihydro-1H-imidazo[4,5-c]pyridin-5(4H)-yl)(pyrazolo[1,5-a]pyridin-3-yl)methanone]
26 | < 0.5 | O=C(c1cncs1)N1CCc2[nH]cnc2[C@H]1c1cc2ccccn2n1 [Example 602, (S)-(4-(pyrazolo[1,5-a]pyridin-2-yl)-6,7-dihydro-1H-imidazo[4,5-c]pyridin-5(4H)-yl)(thiazol-5-yl)methanone]
27 | 1 to 5 | O=C(c1cncs1)N1CCc2[nH]cnc2[C@@H]1c1cc2ccccn2n1 [Example 603, (R)-(4-(pyrazolo[1,5-a]pyridin-2-yl)-6,7-dihydro-1H-imidazo[4,5-c]pyridin-5(4H)-yl)(thiazol-5-yl)methanone]
28 | > 5 | O=C(c1nnc(-c2ccccn2)o1)N1CCc2[nH]cnc2[C@@H]1c1cc2ccccn2n1 [Example 604, (R)-(4-(pyrazolo[1,5-a]pyridin-2-yl)-6,7-dihydro-1H-imidazo[4,5-c]pyridin-5(4H)-yl)(5-(pyridin-2-yl)-1,3,4-oxadiazol-2-yl)methanone]
29 | 0.5 to 1 | O=C(c1nnc(-c2ccccn2)o1)N1CCc2[nH]cnc2[C@H]1c1cc2ccccn2n1 [Example 605, (S)-(4-(pyrazolo[1,5-a]pyridin-2-yl)-6,7-dihydro-1H-imidazo[4,5-c]pyridin-5(4H)-yl)(5-(pyridin-2-yl)-1,3,4-oxadiazol-2-yl)methanone]
30 | < 0.5 | Cc1ncoc1C(=O)N1CCc2[nH]cnc2[C@H]1c1cc2ccccn2n1 [Example 606, (S)-(4-methyloxazol-5-yl)(4-(pyrazolo[1,5-a]pyridin-2-yl)-6,7-dihydro-1H-imidazo[4,5-c]pyridin-5(4H)-yl)methanone]
31 | > 5 | Cc1ncoc1C(=O)N1CCc2[nH]cnc2[C@@H]1c1cc2ccccn2n1 [Example 607, (R)-(4-methyloxazol-5-yl)(4-(pyrazolo[1,5-a]pyridin-2-yl)-6,7-dihydro-1H-imidazo[4,5-c]pyridin-5(4H)-yl)methanone]
32 | 1 to 5 | O=C(Cc1nc(C(F)(F)F)cs1)N1CCc2[nH]cnc2[C@H]1c1cc2ccccn2n1 [Example 608, (S)-1-(4-(pyrazolo[1,5-a]pyridin-2-yl)-6,7-dihydro-1H-imidazo[4,5-c]pyridin-5(4H)-yl)-2-(4-(trifluoromethyl)thiazol-2-yl)ethanone]
33 | > 5 | O=C(Cc1nc(C(F)(F)F)cs1)N1CCc2[nH]cnc2[C@@H]1c1cc2ccccn2n1 [Example 609, (R)-1-(4-(pyrazolo[1,5-a]pyridin-2-yl)-6,7-dihydro-1H-imidazo[4,5-c]pyridin-5(4H)-yl)-2-(4-(trifluoromethyl)thiazol-2-yl)ethanone]
34 | < 0.5 | O=C(c1ocnc1C(F)(F)F)N1CCc2[nH]cnc2[C@H]1c1cc2ccccn2n1 [Example 610, (S)-(4-(pyrazolo[1,5-a]pyridin-2-yl)-6,7-dihydro-1H-imidazo[4,5-c]pyridin-5(4H)-yl)(4-(trifluoromethyl)oxazol-5-yl)methanone]
35 | 1 to 5 | O=C(c1ocnc1C(F)(F)F)N1CCc2[nH]cnc2[C@@H]1c1cc2ccccn2n1 [Example 611, (R)-(4-(pyrazolo[1,5-a]pyridin-2-yl)-6,7-dihydro-1H-imidazo[4,5-c]pyridin-5(4H)-yl)(4-(trifluoromethyl)oxazol-5-yl)methanone]
36 | < 0.5 | CC(F)(F)c1ncc(C(=O)N2CCc3[nH]cnc3[C@H]2c2cc3ccccn3n2)s1 [Example 612, (S)-(2-(1,1-difluoroethyl)thiazol-5-yl)(4-(pyrazolo[1,5-a]pyridin-2-yl)-6,7-dihydro-1H-imidazo[4,5-c]pyridin-5(4H)-yl)methanone]
37 | < 0.5 | O=C(CC1CC1)N1CCc2[nH]cnc2[C@H]1c1cc2ccccn2n1 [Example 614, (S)-2-cyclopropyl-1-(4-(pyrazolo[1,5-a]pyridin-2-yl)-6,7-dihydro-1H-imidazo[4,5-c]pyridin-5(4H)-yl)ethanone]
38 | 1 to 5 | O=C(CC1CC1)N1CCc2[nH]cnc2[C@@H]1c1cc2ccccn2n1 [Example 615, (R)-2-cyclopropyl-1-(4-(pyrazolo[1,5-a]pyridin-2-yl)-6,7-dihydro-1H-imidazo[4,5-c]pyridin-5(4H)-yl)ethanone]
39 | 0.5 to 1 | O=C(c1nnc(-c2ncccc2F)o1)N1CCc2[nH]cnc2[C@H]1c1cc2ccccn2n1 [Example 616, (S)-(5-(3-fluoropyridin-2-yl)-1,3,4-oxadiazol-2-yl)(4-(pyrazolo[1,5-a]pyridin-2-yl)-6,7-dihydro-1H-imidazo[4,5-c)pyridin-5(4H)-yl)methanone]
40 | > 5 | O=C(c1nnc(-c2ncccc2F)o1)N1CCc2[nH]cnc2[C@@H]1c1cc2ccccn2n1 [Example 617, (R)-(5-(3-fluoropyridin-2-yl)-1,3,4-oxadiazol-2-yl)(4-(pyrazolo[1,5-a]pyridin-2-yl)-6,7-dihydro-1H-imidazo[4,5-c]pyridin-5(4H)-yl)methanone]

— patent US20230365592A1 (Agios Pharmaceuticals, Inc., priority 2022, published 2023)
